For test [1], the system named is Coxsackie A2 virus (strain HCXV A2). Description: Antiviral activity against Coxsackie virus in vivo (mortality and life expectancy of infected mice). As to conditions: for inhibition in vivo at 30 mg/kg / mortality at 30 mg/kg: Mus musculus, po; for inhibition in vivo at 30 mg/kg: 168 h, read-out: Protective index (%); for mortality at 30 mg/kg: 360 h, read-out: Total mortality, %; for Average life expectancy (days), Compared with control: difference vs virus control; for Average life expectancy (days), Relative: mice infected with 10LD50 HCXV A2. In a few lines: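 White mice (6–7 g), 14–15 per group, infected i.m. with 10LD50 of HCXV A2; compounds 30 mg/kg orally once daily for 7 days from 24 h post-infection, saline placebo. Mortality and weight recorded daily over 15 days versus untreated infected group.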

For a further test, the system named is hRV. Description: Antiviral activity against rhinovirus in mice (infectious titer in lungs titrated in Hela cells; body and lung weight). As to conditions: 30 mg/kg orally once daily for 4 days from 12 h after infection; lung suspension titrated in Hela cells. The class given is in vivo. The method, then:
In this study, author's strain of hRV was used. The animals were infected with the virus intranasally under brief ether anesthesia in a volume of 0.05 ml/mouse.
To determine the efficiency of the compounds against hRV in the experimental model in vivo, the virus was previously titrated in mice, then the mice were infected, and the studied compounds were administered orally. The infectious titer was assessed on day 4 after infection by titration of a lung suspension in Hela cell culture. The infectious titer of the hRV virus in the lugs of the experimental group was determined in comparison with that in the control group by TCID.
The studied compounds and placebo (physiological solution) were orally administered to the mice once daily for 4 days, starting 12 hours after infection. The compounds were administered at a dose of 30 mg/kg of animal body weight. Intact animals served as a negative control and were kept under the same conditions as the experimental animals in a separate room.
The antiviral activity of the studied compounds was determined on day 4 after infection by a reduction of the virus infectious activity determined in Hela cell culture.

Test [2] relates to human respiratory syncytial virus (strain A2). Briefly: Antiviral activity against RS virus in a murine model of suppressed immune system (lung edema). The test is classed as in vivo. As to conditions: Balb/c mice, cyclophosphan-suppressed, RS-virus pneumonia; 30 mg/kg once daily for 5 days; M ± SD, n = 5; scores from possible 4. In a few lines:
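Balb/c mice immunosuppressed with cyclophosphan 100 mg/kg i.p. 5 days before intranasal infection (virus titer 5×10^6 TCID50/mL). Compounds given 30 mg/kg once daily for 5 days, starting 24 h post-infection. Activity scored as reduction in lung edema versus infected control on day 5.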

The next test deals with human virus hRSV. Briefly: Antiviral activity against mouse-adapted RS virus (body weight; viral titer in lungs titrated in Hep-2 cells). The following applies: compounds 30 mg/kg, Ribavirin 40 mg/kg, orally once daily for 5 days, n = 6. The test is classed as in vivo, mice.
[3] abbreviates: 30 mg/kg orally once daily for 7 days, vs virus control.
The mark [4] stands for this setting: 30 mg/kg orally once daily for 7 days.

Read-outs that look alike come from different tables or passages of the source.

We go through nine compounds from patent US20170183318A1, “AMIDE COMPOUNDS, METHODS FOR PREPARATION, AND USE THEREOF AS AGENTS FOR THE TREATMENT AND PREVENTION OF DISEASES CAUSED BY RNA- AND/OR DNA-CONTAINING VIRUSES, AND CONCOMITANT DISEASES” (OBSCHESTVO S OGRANICHENNOI OTVETSTVENNOSTIYU …, priority 2014, published 2017).

The mortality is the share of the test organisms that died. As for `O=C(O)CCCC(=O)NCCC1CCCN1` (stereo not shown) [Compound 2], in test [1] (setting [3]), the inhibition in vivo at 30 mg/kg was 55.6%. The mortality at 30 mg/kg in test [1] came out at 28.6%. Further, in test [1] (setting [4]), the “Average life expectancy (days), Compared with control” value is recorded as “+20.1 days” and the “Average life expectancy (days), Relative” value is listed as 32.3 days. Besides, the “Infectious titer of the virus in lungs lg TCID50 (4 days after infection)” value (“Infectious titer of the virus” below) with hRV worked out at 0.1 ± 0.05 lg TCID50. Further, the “Degree of lung edema on day 5 after infection, score” value (shortened to “Degree of lung edema”) in test [2] is listed as 1.95 ± 0.32 score.

With `O=C(O)CCCC(=O)NCCCc1cccs1` [Compound 34], the inhibition in vivo at 30 mg/kg in test [1] (setting [3]) turned out to be 22.2%. In addition, in test [1], the mortality at 30 mg/kg came out at 50%. Moreover, in test [1] (setting [4]), the “Average life expectancy (days), Compared with control” value is “+8.3 days” and the “Average life expectancy (days), Relative” value amounted to 20.5 days. Moreover, the “Infectious titer of the virus” value in the test with hRV is recorded as 0.5 ± 0.20 lg TCID50. Moreover, the “Degree of lung edema” value in test [2] turned out to be 1.75 ± 0.4 score.

As for `O=C(O)CCCC(=O)NC(Cc1c[nH]cn1)C(=O)O` (stereo not shown) [Compound 251], in test [1], the inhibition in vivo at 30 mg/kg is 33.3% and the mortality at 30 mg/kg was 42.9%. Besides, in test [1] (setting [4]), the “Average life expectancy (days), Compared with control” value is recorded as “+10.0 days” and the “Average life expectancy (days), Relative” value amounted to 22.2 days. In addition, in the test on hRV, the “Infectious titer of the virus” value is 0 ± 0 lg TCID50. The “Degree of lung edema” value in test [2] is reported as 0.90 ± 0.21 score.

As to `O=C(O)CCCC(=O)NCCc1nc2ccccc2s1` [Compound 275], the inhibition in vivo at 30 mg/kg in test [1] (setting [3]) came out at 40%. The mortality at 30 mg/kg in test [1] was determined as 42.9%. In addition, in test [1] (setting [4]), the “Average life expectancy (days), Compared with control” value is reported as “+9.5 days” and the “Average life expectancy (days), Relative” value was 22.4 days. Besides, in the test on hRV, the “Infectious titer of the virus” value came out at 0.45 ± 0.1 lg TCID50. Further, in test [2], the “Degree of lung edema” value was 1.80 ± 0.20 score.

Turning to `O=C(O)CCCC(=O)NCCC1CCCCN1` (stereo not shown) [Compound 6], the “Body weight of the mice on day 5 after infection with hRSV (M ± SD)” value with human virus hRSV (day 5) is 16.47 ± 0.26. For the same compound, in the test with human virus hRSV (day 7), the “Body weight of the mice on day 7 after infection with hRSV (M ± SD)” value is reported as 17.02 ± 0.29. For the same compound, in the test on hRV, the “Infectious titer of the virus” value is given as 0.4 ± 0.15 lg TCID50. The “Degree of lung edema” value in test [2] came to 0.90 ± 0.22 score.

Consider `CC(Cc1cnc[nH]1)NC(=O)CCCC(=O)O` (stereo not shown) [Compound 115], for which the “Infectious titer of the virus” value in the test on hRV is reported as 0.05 ± 0.05 lg TCID50. For the same compound, in test [2], the “Degree of lung edema” value is on record as 1.60 ± 0.5 score.

Consider `CC(C)N(CCc1cnc[nH]1)C(=O)CCCC(=O)O` [Compound 141], for which, in the test with hRV, the “Infectious titer of the virus” value turned out to be 0 ± 0 lg TCID50. Moreover, the “Degree of lung edema” value in test [2] was 0.55 ± 0.21 score.

For the compound `O=C(O)CCCC(=O)NCCCc1c[nH]cn1` [Compound 118], in the test on hRV, the “Infectious titer of the virus” value is recorded as 0 ± 0 lg TCID50. Besides, in test [2], the “Degree of lung edema” value amounted to 1.85 ± 0.45 score.

Regarding `Cc1csc(CCNC(=O)CCCC(=O)O)n1` [Compound 197], in test [1], the inhibition in vivo at 30 mg/kg worked out at 33.3% and the mortality at 30 mg/kg was determined as 42.9%. Besides, in test [1] (setting [4]), the “Average life expectancy (days), Compared with control” value was “+11.2 days” and the “Average life expectancy (days), Relative” value was 22.2 days. Further, the “Infectious titer of the virus” value in the test on hRV is given as 0.37 ± 0.06 lg TCID50. Also, the “Degree of lung edema” value in test [2] is listed as 1.15 ± 0.23 score.
